In brackets after ≈: the same amount, converted by molar mass. Read-outs that look alike come from different tables or passages of the source.
Tests used:
[1] = target: T1, PBP3 from Escherichia coli (K-12) (Escherichia coli, UniProt P0AD68); assay: Bocillin-FL fluorescence polarization competition binding, E. coli PBP3
T1 construct: made in house
Method in brief: (§1)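 Purified PBPs pre-incubated with inhibitor (E. coli PBP3 1.5 μM, 30 min; P. aeruginosa PBP3 0.75 μM, A. baumannii PBP1a 1 μM and PBP3 0.2 μM, 15 min), then Bocillin-FL 0.1 μM (0.05 μM for PBP1a) added; FP read up to 60 min. EC50 = concentration halving bound Bocillin-FL.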

[2] = target: T2, PBP3 from Acinetobacter baumannii (ATCC 19606) (Acinetobacter baumannii, UniProt A0ABX6CK25); assay: Bocillin-FL fluorescence polarization competition binding, A. baumannii PBP3; conditions: fluorescence polarization competition binding assay using Bocillin-FL; read-out: A. baumannii PBP3 Potency
T2 sequence (A0ABX6CK25 64-610): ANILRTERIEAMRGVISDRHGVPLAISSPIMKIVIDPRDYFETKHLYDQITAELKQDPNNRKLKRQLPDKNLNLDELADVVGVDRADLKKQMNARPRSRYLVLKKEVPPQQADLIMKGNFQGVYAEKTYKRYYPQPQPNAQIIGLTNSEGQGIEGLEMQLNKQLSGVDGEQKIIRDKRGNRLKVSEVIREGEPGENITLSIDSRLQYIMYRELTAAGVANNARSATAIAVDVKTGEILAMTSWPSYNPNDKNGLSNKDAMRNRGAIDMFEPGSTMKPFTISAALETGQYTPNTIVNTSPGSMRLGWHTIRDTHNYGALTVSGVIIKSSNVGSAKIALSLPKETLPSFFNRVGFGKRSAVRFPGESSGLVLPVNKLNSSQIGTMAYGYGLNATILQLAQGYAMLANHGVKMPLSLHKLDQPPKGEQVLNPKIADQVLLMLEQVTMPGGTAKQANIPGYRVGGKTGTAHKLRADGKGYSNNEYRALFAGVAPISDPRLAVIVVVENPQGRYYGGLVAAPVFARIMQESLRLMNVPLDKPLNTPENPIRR
Method in brief: as §1

A. baumannii ATCC 17978 = assay: microbe, parasite or virus in culture; type: cell-based; conditions: Acinetobacter baumannii, ATCC17978, read-out: MIC, A. baumannii ATCC 17978
P. aeruginosa ATCC 35151 = assay: microbe, parasite or virus in culture; type: cell-based; conditions: Pseudomonas aeruginosa, ATCC35151, read-out: Minimum inhibitory concentration, P. aeruginosa ATCC 35151
[3] = test system: P. aeruginosa (ΔmexAB-oprM); assay: Broth microdilution MIC in iron-depleted CAMHB (IDM); type: cell-based; conditions: Pseudomonas aeruginosa; iron-depleted CAMHB (IDM); […]; read-out: Minimum inhibitory concentration, P. aeruginosa ΔmexAB-oprM
P. aeruginosa CDC-0054 = assay: microbe, parasite or virus in culture; type: cell-based; conditions: Pseudomonas aeruginosa, CDC0054, read-out: Minimum inhibitory concentration, P. aeruginosa CDC-0054
[4] = test system: N. gonorrhoeae ATCC 49226; assay: Liquid broth MIC in Fastidious broth; conditions: Neisseria gonorrhoeae
N. gonorrhoeae MS11 = assay: Liquid broth MIC in Fastidious broth; conditions: Neisseria gonorrhoeae
N. gonorrhoeae WHO K = assay: Liquid broth MIC in Fastidious broth; conditions: Neisseria gonorrhoeae
N. gonorrhoeae WHO Z = assay: Liquid broth MIC in Fastidious broth; conditions: Neisseria gonorrhoeae
[5] = ATCC49226, read-out: Minimum Inhibitory Concentration (MIC), N. gonorrhoeae ATCC 49226
[6] = MS11, read-out: Minimum Inhibitory Concentration (MIC), N. gonorrhoeae MS11
[7] = read-out: Minimum Inhibitory Concentration (MIC), N. gonorrhoeae WHO K
[8] = read-out: Minimum Inhibitory Concentration (MIC), N. gonorrhoeae WHO Z
[9] = ATCC49226, read-out: Minimum Inhibitory Concentration, ATCC 49226
[10] = MS11, read-out: Minimum Inhibitory Concentration, MS11
[11] = read-out: Minimum Inhibitory Concentration, WHO K
[12] = read-out: Minimum Inhibitory Concentration, WHO Z

T1 sequence (P0AD68 1-577): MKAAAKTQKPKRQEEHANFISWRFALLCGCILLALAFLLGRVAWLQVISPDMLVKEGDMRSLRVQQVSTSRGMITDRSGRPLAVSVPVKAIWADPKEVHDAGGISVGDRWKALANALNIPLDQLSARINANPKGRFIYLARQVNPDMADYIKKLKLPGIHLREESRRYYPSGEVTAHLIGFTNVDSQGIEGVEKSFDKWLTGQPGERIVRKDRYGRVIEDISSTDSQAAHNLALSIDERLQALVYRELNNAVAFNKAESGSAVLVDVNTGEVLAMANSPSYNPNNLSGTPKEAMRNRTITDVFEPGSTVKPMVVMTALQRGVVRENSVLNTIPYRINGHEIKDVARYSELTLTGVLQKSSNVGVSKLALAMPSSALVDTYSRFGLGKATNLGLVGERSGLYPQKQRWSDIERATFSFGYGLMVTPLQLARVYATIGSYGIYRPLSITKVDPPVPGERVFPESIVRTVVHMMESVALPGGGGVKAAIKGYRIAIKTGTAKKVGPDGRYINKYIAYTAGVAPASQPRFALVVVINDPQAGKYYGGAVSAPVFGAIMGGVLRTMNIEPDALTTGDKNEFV

Row | Structure (SMILES) | EC50 [1] | IC50 [2] | MIC (A. baumannii ATCC 17978) | MIC (P. aeruginosa ATCC 35151) | MIC [3] | MIC (P. aeruginosa CDC-0054) | MIC [4, 5] | MIC (N. gonorrhoeae MS11; [6]) | MIC (N. gonorrhoeae WHO K; [7]) | MIC (N. gonorrhoeae WHO Z; [8]) | MIC [4, 9] | MIC (N. gonorrhoeae MS11; [10]) | MIC (N. gonorrhoeae WHO K; [11]) | MIC (N. gonorrhoeae WHO Z; [12])
1 | O=C(NCCN1CCN(C(=O)NC(C(=O)N[C@H]2Cc3ccc(F)c(C(=O)O)c3OB2O)c2cc(F)c(O)c(O)c2Cl)C(=O)C1=O)c1ccccc1 (stereo partly drawn) [Example 207, (3R)-3-(2-(4-(2-benzamidoethyl)-2,3-dioxopiperazine-1-carboxamido)-2-(2-chloro-5-fluoro-3,4-dihydroxyphenyl)acetamido)-7-fluoro-2-hydroxy-3,4-dihydro-2H-benzo[e][1,2]oxaborinine-8-carboxylic acid] | < 10 µM | < 10 µM | < 1 µg/mL | < 1 µg/mL | < 1 µg/mL | 2 to 4 µg/mL (≈ 2.74 to 5.48 µM) | 16 to 32 µg/mL (≈ 21.9 to 43.8 µM) | 16 to 32 µg/mL (≈ 21.9 to 43.8 µM) | > 64 µg/mL | 16 to 32 µg/mL (≈ 21.9 to 43.8 µM) |  |  |  | 
2 | O=C(NCCS(=O)(=O)N1CCN(C(=O)N[C@@H](C(=O)N[C@H]2Cc3ccc(F)c(C(=O)O)c3OB2O)c2cc(F)c(O)c(O)c2Cl)C1=O)Nc1cccnc1 [Example 267, (R)-3-((R)-2-(2-chloro-5-fluoro-3,4-dihydroxyphenyl)-2-(2-oxo-3-((2-(3-(pyridin-3-yl)ureido)ethyl)sulfonyl)imidazolidine-1-carboxamido)acetamido)-7-fluoro-2-hydroxy-3,4-dihydro-2H-benzo[e][1,2]oxaborinine-8-carboxylic acid] | < 10 µM | < 10 µM | < 1 µg/mL | < 1 µg/mL | < 1 µg/mL | 2 to 4 µg/mL (≈ 2.56 to 5.12 µM) |  |  |  |  | 16 to 32 µg/mL (≈ 20.5 to 40.9 µM) | 16 to 32 µg/mL (≈ 20.5 to 40.9 µM) | > 64 µg/mL | 4 to 8 µg/mL (≈ 5.12 to 10.2 µM)
3 | CN(CCN1CCN(C(=O)N[C@@H](C(=O)N[C@H]2Cc3ccc(F)c(C(=O)O)c3OB2O)c2cc(F)c(O)c(O)c2Cl)C(=O)C1=O)Cc1cccnc1 [Example 201, (R)-3-((R)-2-(2-chloro-5-fluoro-3,4-dihydroxyphenyl)-2-(4-(2-(methyl(pyridin-3-ylmethyl)amino)ethyl)-2,3-dioxopiperazine-1-carboxamido)acetamido)-7-fluoro-2-hydroxy-3,4-dihydro-2H-benzo[e][1,2]oxaborinine-8-carboxylic acid] | < 10 µM | < 10 µM | < 1 µg/mL | < 1 µg/mL | < 1 µg/mL | < 1 µg/mL | 16 to 32 µg/mL (≈ 21.9 to 43.8 µM) | 16 to 32 µg/mL (≈ 21.9 to 43.8 µM) | 16 to 32 µg/mL (≈ 21.9 to 43.8 µM) | > 64 µg/mL |  |  |  | 
4 | O=C(NCCCS(=O)(=O)N1CCN(C(=O)N[C@H](C(=O)N[C@H]2Cc3ccc(F)c(C(=O)O)c3OB2O)c2cc(F)c(O)c(O)c2Cl)C1=O)c1cccc(O)c1 [Example 270, (R)-3-((S)-2-(2-chloro-5-fluoro-3,4-dihydroxyphenyl)-2-(3-((3-(3-hydroxybenzamido)propyl)sulfonyl)-2-oxoimidazolidine-1-carboxamido)acetamido)-7-fluoro-2-hydroxy-3,4-dihydro-2H-benzo[e][1,2]oxaborinine-8-carboxylic acid] | 50 to 250 µM | < 10 µM | < 1 µg/mL | < 1 µg/mL | < 1 µg/mL | > 128 µg/mL |  |  |  |  | > 64 µg/mL | > 64 µg/mL | > 64 µg/mL | > 64 µg/mL
5 | O=C(NCCCN1CCN(C(=O)N[C@@H](C(=O)N[C@H]2Cc3ccc(F)c(C(=O)O)c3OB2O)c2cc(F)c(O)c(O)c2Cl)C1=O)c1ccccc1 [Example 253, (R)-3-((R)-2-(3-(3-benzamidopropyl)-2-oxoimidazolidine-1-carboxamido)-2-(2-chloro-5-fluoro-3,4-dihydroxyphenyl)acetamido)-7-fluoro-2-hydroxy-3,4-dihydro-2H-benzo[e][1,2]oxaborinine-8-carboxylic acid] | < 10 µM | < 10 µM | < 1 µg/mL | < 1 µg/mL | < 1 µg/mL | 8 to 16 µg/mL (≈ 11.2 to 22.4 µM) |  |  |  |  | 16 to 32 µg/mL (≈ 22.4 to 44.7 µM) | 16 to 32 µg/mL (≈ 22.4 to 44.7 µM) | > 64 µg/mL | 16 to 32 µg/mL (≈ 22.4 to 44.7 µM)
6 | O=C(NCCS(=O)(=O)N1CCN(C(=O)NC(C(=O)N[C@H]2Cc3ccc(F)c(C(=O)O)c3OB2O)c2cc(F)c(O)c(O)c2Cl)C1=O)Nc1cccc(O)c1 (stereo partly drawn) [Example 266, (3R)-3-(2-(2-chloro-5-fluoro-3,4-dihydroxyphenyl)-2-(3-((2-(3-(3-hydroxyphenyl)ureido)ethyl)sulfonyl)-2-oxoimidazolidine-1-carboxamido)acetamido)-7-fluoro-2-hydroxy-3,4-dihydro-2H-benzo[e][1,2]oxaborinine-8-carboxylic acid] | < 10 µM | < 10 µM | < 1 µg/mL | < 1 µg/mL | < 1 µg/mL | 2 to 4 µg/mL (≈ 2.51 to 5.02 µM) |  |  |  |  | 16 to 32 µg/mL (≈ 20.1 to 40.2 µM) | 16 to 32 µg/mL (≈ 20.1 to 40.2 µM) | 16 to 32 µg/mL (≈ 20.1 to 40.2 µM) | 4 to 8 µg/mL (≈ 5.02 to 10 µM)
7 | O=C(NCCN1CCN(C(=O)NC(C(=O)N[C@H]2Cc3ccc(F)c(C(=O)O)c3OB2O)c2cc(F)c(O)c(O)c2Cl)C(=O)C1=O)Nc1ccc(O)cc1 (stereo partly drawn) [Example 219, (3R)-3-(2-(2-chloro-5-fluoro-3,4-dihydroxyphenyl)-2-(4-(2-(3-(4-hydroxyphenyl)ureido)ethyl)-2,3-dioxopiperazine-1-carboxamido)acetamido)-7-fluoro-2-hydroxy-3,4-dihydro-2H-benzo[e][1,2]oxaborinine-8-carboxylic acid] | < 10 µM | < 10 µM | < 1 µg/mL | < 1 µg/mL | < 1 µg/mL | 8 to 16 µg/mL (≈ 10.5 to 21 µM) | 16 to 32 µg/mL (≈ 21 to 42.1 µM) | 16 to 32 µg/mL (≈ 21 to 42.1 µM) | > 64 µg/mL | 16 to 32 µg/mL (≈ 21 to 42.1 µM) |  |  |  | 
8 | O=C(NCCCS(=O)(=O)N1CCN(C(=O)NC(C(=O)N[C@H]2Cc3ccc(F)c(C(=O)O)c3OB2O)c2cc(F)c(O)c(O)c2Cl)C1=O)c1ccccc1 (stereo partly drawn) [Example 268, (3R)-3-(2-(3-((3-benzamidopropyl)sulfonyl)-2-oxoimidazolidine-1-carboxamido)-2-(2-chloro-5-fluoro-3,4-dihydroxyphenyl)acetamido)-7-fluoro-2-hydroxy-3,4-dihydro-2H-benzo[e][1,2]oxaborinine-8-carboxylic acid] | < 10 µM | < 10 µM | < 1 µg/mL | < 1 µg/mL | < 1 µg/mL | 8 to 16 µg/mL (≈ 10.3 to 20.5 µM) |  |  |  |  | 16 to 32 µg/mL (≈ 20.5 to 41 µM) | 16 to 32 µg/mL (≈ 20.5 to 41 µM) | > 64 µg/mL | 16 to 32 µg/mL (≈ 20.5 to 41 µM)
